We go through 27 compounds from patent US11590139B2, “Substituted aminopurine compounds, compositions thereof, and methods of treatment therewith” (Signal Pharmaceuticals, LLC, priority 2014, dated 2023).

The structures appear in SMILES notation. pIC50: −log10 of the molar value.

In one assay the test system is Lox-IMVI melanoma cell line. In words: Lox-IMVI anti-proliferative assay (growth inhibition, Cell Titer-Glo). It is filed as cell-based, human. As to conditions: Homo sapiens; IC50 activity level in the cell-based Lox-IMVI anti-proliferative assay; read-out: Activity. The essentials: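 RPMI/10% FBS; cmpd 0.5 nM–10 μM, 3-fold ×10, duplicate, 0.2% DMSO final; 72 h, 37 °C, 5% CO2. ATP-luminescence readout at t0 and 72 h. IC50 = 50% of DMSO control, 4-parameter logistic fit.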
Take `NC(=O)[C@H]1CC[C@@H](n2c(Nc3c(F)cc(Cl)cc3F)nc3cnc(N[C@@H]4CC[C@H](O)C4)nc32)CC1` [Example 328, (1S,4s)-4-(8-(4-chloro-2,6-difluorophenylamino)-2-((1R,3S)-3-hydroxycyclopentylamino)-9H-purin-9-yl)cyclohexanecarboxamide]: the pIC50 is below 6.00.
Take `NC(=O)[C@H]1CC[C@@H](n2c(Nc3c(Cl)cccc3Cl)nc3cnc(N[C@H]4CCC[C@@H](O)C4)nc32)CC1` [Example 370, (1R,4s)-4-(8-(2,6-dichlorophenylamino)-2-((1S,3R)-3-hydroxycyclohexylamino)-9H-purin-9-yl)cyclohexanecarboxamide]: the pIC50 was below 6.00.
Regarding `NC(=O)[C@H]1CC[C@@H](n2c(Nc3c(F)cc(F)cc3F)nc3cnc(NC4CC(F)(F)C4)nc32)CC1` [Example 226, (1s,4s)-4-(2-(3,3-difluorocyclobutylamino)-8-(2,4,6-trifluorophenylamino)-9H-purin-9-yl)cyclohexanecarboxamide], the pIC50 was below 6.00.
As for `NC(=O)[C@H]1CC[C@@H](n2c(Nc3c(F)cc(F)cc3Cl)nc3cnc(NC4CC(F)(F)C4)nc32)CC1` [Example 228, (1s,4s)-4-(8-(2-chloro-4,6-difluorophenylamino)-2-(3,3-difluorocyclobutylamino)-9H-purin-9-yl)cyclohexanecarboxamide], the pIC50 was 6.00 to 6.30.
As to `NC(=O)[C@H]1CC[C@@H](n2c(Nc3c(F)cc(Cl)cc3Cl)nc3cnc(N[C@H]4C[C@H](O)C4)nc32)CC1` [Example 301, (1s,4s)-4-(8-(2,4-dichloro-6-fluorophenylamino)-2-((1r,3r)-3-hydroxycyclobutylamino)-9H-purin-9-yl)cyclohexanecarboxamide], the pIC50 is 6.00 to 6.30.
`CS(=O)(=O)N1CCC(Nc2ncc3nc(Nc4c(Cl)cc(F)cc4Cl)n([C@H]4CC[C@@H](C(N)=O)CC4)c3n2)CC1` [Example 297, (1s,4s)-4-(8-(2,6-dichloro-4-fluorophenylamino)-2-(1-(methylsulfonyl)piperidin-4-ylamino)-9H-purin-9-yl)cyclohexanecarboxamide]: the pIC50 was below 6.00.
Take `NC(=O)[C@H]1CC[C@@H](n2c(Nc3c(F)cccc3Cl)nc3cnc(NC4CCC(F)(F)CC4)nc32)CC1` [Example 235, (1s,4s)-4-(8-(2-chloro-6-fluorophenylamino)-2-(4,4-difluorocyclohexylamino)-9H-purin-9-yl)cyclohexanecarboxamide]: the pIC50 is 6.00 to 6.30.
For the compound `NC(=O)[C@H]1CC[C@@H](n2c(Nc3c(F)cccc3Cl)nc3cnc(N[C@H]4CC[C@H](O)C4)nc32)CC1` [Example 325, (1R,4s)-4-(8-(2-chloro-6-fluorophenylamino)-2-((1S,3S)-3-hydroxycyclopentylamino)-9H-purin-9-yl)cyclohexanecarboxamide], the pIC50 is below 6.00.
`CS(=O)(=O)N1CCC(Nc2ncc3nc(Nc4c(F)cc(Cl)cc4Cl)n([C@H]4CC[C@@H](C(N)=O)CC4)c3n2)CC1` [Example 296, (1s,4s)-4-(8-(2,4-dichloro-6-fluorophenylamino)-2-(1-(methylsulfonyl)piperidin-4-ylamino)-9H-purin-9-yl)cyclohexanecarboxamide]: the pIC50 was 6.00 to 6.30.
As to `NC(=O)[C@H]1CC[C@@H](n2c(Nc3ccc(Cl)c(Cl)c3Cl)nc3cnc(NC4CCOCC4)nc32)CC1` [Example 73, (1s,4s)-4-(2-(tetrahydro-2H-pyran-4-ylamino)-8-(2,3,4-trichlorophenylamino)-9H-purin-9-yl)cyclohexanecarboxamide], the pIC50 is below 6.00.
In the case of `NC(=O)[C@H]1CC[C@@H](n2c(Nc3ccc(Cl)cc3Cl)nc3cnc(N[C@@H]4CCC[C@H]4O)nc32)CC1` [Example 261, (1S,4s)-4-(8-(2,4-dichlorophenylamino)-2-((1R,2R)-2-hydroxycyclopentylamino)-9H-purin-9-yl)cyclohexanecarboxamide], the pIC50 is below 6.00.

Still in this assay, the particulars now being: Homo sapiens; Lox-IMVI anti-proliferative assay, IC50 activity level; read-out: Activity.
With `NC(=O)[C@H]1CC[C@@H](n2c(Nc3c(F)cc(Cl)cc3F)nc3cnc(NC4CCCOCC4)nc32)CC1` (stereo partly drawn) [Example 540, (1s,4s)-4-(8-(4-chloro-2,6-difluorophenylamino)-2-(oxepan-4-ylamino)-9H-purin-9-yl)cyclohexanecarboxamide], the pIC50 was 6.30 to 6.60.
Consider `C[C@]1(C(N)=O)CC[C@@H](n2c(Nc3c(F)cc(Cl)cc3Cl)nc3cnc(NC4CCCC4)nc32)CC1` [Example 557, (1s,4s)-4-(2-(cyclopentylamino)-8-(2,4-dichloro-6-fluorophenylamino)-9H-purin-9-yl)-1-methylcyclohexanecarboxamide], for which the pIC50 is above 6.60.
In the case of `C[C@]1(O)CCC[C@@H](Nc2ncc3nc(Nc4c(Cl)cccc4Cl)n([C@H]4CC[C@@H](C(N)=O)CC4)c3n2)C1` [Example 424, (1S,4s)-4-(8-(2,6-dichlorophenylamino)-2-((1R,3S)-3-hydroxy-3-methylcyclohexylamino)-9H-purin-9-yl)cyclohexanecarboxamide], the pIC50 is below 6.00.
As for `N#Cc1cc(F)c(Nc2nc3cnc(N[C@H]4CCCC[C@H](O)C4)nc3n2[C@H]2CC[C@@H](C(N)=O)CC2)c(Cl)c1` [Example 448, (1R,4s)-4-(8-(2-chloro-4-cyano-6-fluorophenylamino)-2-((1S,3S)-3-hydroxycycloheptylamino)-9H-purin-9-yl)cyclohexanecarboxamide], the pIC50 was below 6.00.
As for `CC(C)Nc1ncc2nc(Nc3c(Cl)cc(C#N)cc3Cl)n([C@H]3CC[C@@H](C(N)=O)CC3)c2n1` [Example 431, (1s,4s)-4-(8-(2,6-dichloro-4-cyanophenylamino)-2-(isopropylamino)-9H-purin-9-yl)cyclohexanecarboxamide], the pIC50 was 6.00 to 6.30.
On the same count and under the same terms, the figure for `C[C@@H]1COCC[C@@H]1Nc1ncc2nc(Nc3c(F)cc(Cl)cc3F)n([C@H]3CC[C@@H](C(N)=O)CC3)c2n1` [Example 509, (1R,4s)-4-(8-(4-chloro-2,6-difluorophenylamino)-2-((3S,4S)-3-methyltetrahydro-2H-pyran-4-ylamino)-9H-purin-9-yl)cyclohexanecarboxamide] is 6.00 to 6.30.
Consider `C[C@@H]1COCC[C@H]1Nc1ncc2nc(Nc3c(Cl)cc(C#N)cc3Cl)n([C@H]3CC[C@@H](C(N)=O)CC3)c2n1` [Example 495, (1S,4s)-4-(8-(2,6-dichloro-4-cyanophenylamino)-2-((3S,4R)-3-methyltetrahydro-2H-pyran-4-ylamino)-9H-purin-9-yl)cyclohexanecarboxamide], for which the pIC50 was above 6.60.
For the compound `NC(=O)[C@H]1CC[C@@H](n2c(Nc3c(Cl)cc(Cl)cc3Cl)nc3cnc(N[C@@H]4CCCC[C@H](O)C4)nc32)CC1` [Example 439, (1S,4s)-4-(2-((1R,3S)-3-hydroxycycloheptylamino)-8-(2,4,6-trichlorophenylamino)-9H-purin-9-yl)cyclohexanecarboxamide], the pIC50 is below 6.00.

The same assay, now with this note: Homo sapiens; Lox-IMVI melanoma cell line, anti-proliferative assay; read-out: Activity (IC50 activity level).
As to `NC(=O)[C@H]1CC[C@@H](n2c(Nc3c(F)cc(Cl)cc3Cl)nc3cnc(N[C@@H]4CCCN(Cc5ccccc5)C4)nc32)CC1` [Example 758, (1S,4s)-4-(2-((R)-1-benzylpiperidin-3-ylamino)-8-(2,4-dichloro-6-fluorophenylamino)-9H-purin-9-yl)cyclohexanecarboxamide], the pIC50 is below 6.00.
For the compound `NC(=O)[C@H]1CC[C@@H](n2c(Nc3c(F)cc(Cl)cc3F)nc3cnc(N[C@H]4CCOC[C@H]4F)nc32)CC1` [Example 672, (1R,4s)-4-(8-(4-chloro-2,6-difluorophenylamino)-2-((3S,4S)-3-fluorotetrahydro-2H-pyran-4-ylamino)-9H-purin-9-yl)cyclohexanecarboxamide], the pIC50 was above 6.60.
On to `C[C@]1(C(N)=O)CC[C@@H](n2c(Nc3c(Cl)cc(Cl)cc3Cl)nc3cnc(N[C@H]4CC[C@H](O)C4)nc32)CC1` [Example 645, (1R,4s)-4-(2-((1S,3S)-3-hydroxycyclopentylamino)-8-(2,4,6-trichlorophenylamino)-9H-purin-9-yl)-1-methylcyclohexanecarboxamide], for which the pIC50 is 6.00 to 6.30.
With `CC(C)OC(=O)N1CCC[C@@H](Nc2ncc3nc(Nc4c(F)cc(C#N)cc4F)n([C@H]4CC[C@@H](C(N)=O)CC4)c3n2)C1` [Example 771, (R)-isopropyl 3-(9-((1s,4S)-4-carbamoylcyclohexyl)-8-(4-cyano-2,6-difluorophenylamino)-9H-purin-2-ylamino)piperidine-1-carboxylate], the pIC50 was below 6.00.
On to `COC(=O)N1CCC[C@@H](Nc2ncc3nc(Nc4c(F)cc(C#N)cc4Cl)n([C@H]4CC[C@@H](C(N)=O)CC4)c3n2)C1` [Example 709, (R)-methyl 3-(9-((1s,4S)-4-carbamoylcyclohexyl)-8-(2-chloro-4-cyano-6-fluorophenylamino)-9H-purin-2-ylamino)piperidine-1-carboxylate], for which the pIC50 was 6.00 to 6.30.
In the case of `CC(=O)N1CCC[C@@H](Nc2ncc3nc(Nc4c(Cl)cc(C#N)cc4Cl)n([C@H]4CC[C@@H](C(N)=O)CC4)c3n2)C1` [Example 712, (1S,4s)-4-(2-((R)-1-acetylpiperidin-3-ylamino)-8-(2,6-dichloro-4-cyanophenylamino)-9H-purin-9-yl)cyclohexanecarboxamide], the pIC50 is below 6.00.
The same measure, in the same setting: the value for `N#Cc1cc(F)c(Nc2nc3cnc(NC[C@@H]4CCCC[C@H]4O)nc3n2[C@H]2CC[C@@H](C(N)=O)CC2)c(Cl)c1` [Example 664, (1R,4s)-4-(8-(2-chloro-4-cyano-6-fluorophenylamino)-2-(((1S,2R)-2-hydroxycyclohexyl)methylamino)-9H-purin-9-yl)cyclohexanecarboxamide] was below 6.00; that for `NC(=O)[C@H]1CC[C@@H](n2c(Nc3c(F)cc(F)cc3Cl)nc3cnc(N[C@@H]4CCCN(Cc5ccccc5)C4)nc32)CC1` [Example 751, (1S,4s)-4-(2-((R)-1-benzylpiperidin-3-ylamino)-8-(2-chloro-4,6-difluorophenylamino)-9H-purin-9-yl)cyclohexanecarboxamide] was below 6.00.
